In ChEMBL document CHEMBL5696442, “Discovery of type II inhibitors of TGFβ-activated kinase 1 (TAK1) and mitogen-activated protein kinase kinase kinase kinase 2 (MAP4K2)” (J Med Chem, 2015):
The source made the active and inactive calls. No cut-off for these calls is given here.

Tests used:
[1] = molecular target: Cyclin-dependent kinase 1 (Homo sapiens) (UniProt P06493); test: Inhibition of CDC2 K2 labeling site harbouring DLKPQNLLIDDKGTIK in human Huh-7 cells at 10 uM by KiNativ Profiling analysis relative to control; type: cell-based
[2] = molecular target: Tyrosine-protein kinase Yes (Homo sapiens) (UniProt P07947); test: Inhibition of YES (unknown origin) at 10 uM by Ambit Kinomescan binding assay relative to control; values are per cent of control
[3] = molecular target: T1, Serine/threonine-protein kinase TAO2 (Homo sapiens) (UniProt Q9UL54); test: Inhibition of TAO2 K2 labeling site in human Huh-7 cells at 1 uM by KiNativ Profiling analysis relative to control; type: cell-based
T1 sequence (whole entry): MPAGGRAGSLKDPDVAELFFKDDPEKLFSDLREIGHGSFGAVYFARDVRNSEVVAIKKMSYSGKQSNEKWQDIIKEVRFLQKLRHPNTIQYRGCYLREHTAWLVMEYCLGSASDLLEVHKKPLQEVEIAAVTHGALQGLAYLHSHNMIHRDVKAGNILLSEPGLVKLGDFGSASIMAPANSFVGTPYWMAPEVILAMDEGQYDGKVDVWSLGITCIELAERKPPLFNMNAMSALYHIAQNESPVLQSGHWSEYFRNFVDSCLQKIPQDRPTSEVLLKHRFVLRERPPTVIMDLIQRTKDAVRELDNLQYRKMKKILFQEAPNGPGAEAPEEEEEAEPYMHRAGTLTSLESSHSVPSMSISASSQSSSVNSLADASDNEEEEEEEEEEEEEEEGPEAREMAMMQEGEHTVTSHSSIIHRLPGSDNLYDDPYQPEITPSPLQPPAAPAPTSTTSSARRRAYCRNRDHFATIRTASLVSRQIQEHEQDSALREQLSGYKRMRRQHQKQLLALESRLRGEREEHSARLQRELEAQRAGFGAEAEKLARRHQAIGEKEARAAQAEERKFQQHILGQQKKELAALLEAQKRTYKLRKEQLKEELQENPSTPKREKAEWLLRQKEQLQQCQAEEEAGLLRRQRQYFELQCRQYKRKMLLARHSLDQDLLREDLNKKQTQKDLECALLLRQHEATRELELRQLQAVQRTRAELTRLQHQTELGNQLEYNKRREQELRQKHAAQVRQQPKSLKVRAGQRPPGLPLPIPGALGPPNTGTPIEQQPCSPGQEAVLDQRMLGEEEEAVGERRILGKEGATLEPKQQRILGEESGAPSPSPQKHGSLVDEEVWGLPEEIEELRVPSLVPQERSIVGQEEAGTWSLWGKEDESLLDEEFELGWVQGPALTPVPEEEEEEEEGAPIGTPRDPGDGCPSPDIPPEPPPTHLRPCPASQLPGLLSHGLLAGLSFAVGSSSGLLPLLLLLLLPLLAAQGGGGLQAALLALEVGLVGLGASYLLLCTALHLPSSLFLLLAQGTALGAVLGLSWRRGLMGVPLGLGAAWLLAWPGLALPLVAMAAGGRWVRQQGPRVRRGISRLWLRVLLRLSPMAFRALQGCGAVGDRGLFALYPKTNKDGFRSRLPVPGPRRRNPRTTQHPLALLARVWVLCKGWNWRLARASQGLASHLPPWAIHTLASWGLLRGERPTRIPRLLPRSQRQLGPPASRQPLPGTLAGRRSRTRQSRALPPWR

[4] = molecular target: T2, Dual specificity mitogen-activated protein kinase kinase 4 (Homo sapiens) (UniProt P45985); test: Inhibition of MAP2K4 Lys2 labeling site in human A-375 cells at 0.05 uM by KiNativ Profiling analysis relative to control; type: cell-based
T2 sequence (whole entry): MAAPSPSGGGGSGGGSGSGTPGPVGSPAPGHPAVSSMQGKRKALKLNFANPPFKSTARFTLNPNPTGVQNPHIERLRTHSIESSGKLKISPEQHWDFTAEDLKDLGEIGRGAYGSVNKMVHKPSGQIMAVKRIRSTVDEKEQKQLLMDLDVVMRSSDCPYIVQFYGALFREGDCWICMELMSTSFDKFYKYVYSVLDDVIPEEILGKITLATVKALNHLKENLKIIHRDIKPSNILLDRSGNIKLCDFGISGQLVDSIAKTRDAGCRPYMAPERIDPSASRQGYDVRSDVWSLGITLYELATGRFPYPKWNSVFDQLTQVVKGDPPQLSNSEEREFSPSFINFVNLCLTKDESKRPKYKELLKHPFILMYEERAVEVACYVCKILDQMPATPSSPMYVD

[5] = molecular target: Cyclin-dependent kinase 5 (Homo sapiens) (UniProt Q00535); test: Inhibition of CDK5 Lys1 labeling site in human A-375 cells at 0.05 uM by KiNativ Profiling analysis relative to control; type: cell-based
[6] = molecular target: Atypical kinase COQ8B, mitochondrial (Homo sapiens) (UniProt Q96D53); test: Inhibition of ADCK4 (unknown origin) at 10 uM by Ambit Kinomescan binding assay
[7] = molecular target: T3, Dual specificity mitogen-activated protein kinase kinase 6 (Homo sapiens) (UniProt P52564); test: Inhibition of MAP2K6 Lys1 labeling site in human A-375 cells at 5 uM by KiNativ Profiling analysis relative to control; type: cell-based
T3 sequence (whole entry): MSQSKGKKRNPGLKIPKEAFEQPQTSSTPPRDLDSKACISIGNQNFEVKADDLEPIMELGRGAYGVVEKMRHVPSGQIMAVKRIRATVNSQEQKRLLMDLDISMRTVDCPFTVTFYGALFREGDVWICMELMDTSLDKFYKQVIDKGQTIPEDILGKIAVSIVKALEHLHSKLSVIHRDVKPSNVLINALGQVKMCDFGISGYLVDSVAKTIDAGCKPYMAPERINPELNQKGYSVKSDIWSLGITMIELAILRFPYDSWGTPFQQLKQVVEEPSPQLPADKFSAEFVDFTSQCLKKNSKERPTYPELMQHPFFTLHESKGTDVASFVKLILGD

[8] = molecular target: Receptor-interacting serine/threonine-protein kinase 1 (Homo sapiens) (UniProt Q13546); test: Inhibition of RIPK1 (unknown origin) at 1 uM by Ambit Kinomescan binding assay relative to control
[9] = molecular target: Serine/threonine-protein kinase 38-like (Homo sapiens) (UniProt Q9Y2H1); test: Inhibition of NDR2 ACT labeling site in human A-375 cells at 5 uM by KiNativ Profiling analysis relative to control; type: cell-based
[10] = molecular target: Serine/threonine-protein kinase 10 (Homo sapiens) (UniProt O94804); test: Inhibition of LOK Lys2 labeling site in human Huh-7 cells at 1 uM by KiNativ Profiling analysis relative to control; type: cell-based
Chain of Serine/threonine-protein kinase 10 (Homo sapiens) (O94804 whole entry, looked up): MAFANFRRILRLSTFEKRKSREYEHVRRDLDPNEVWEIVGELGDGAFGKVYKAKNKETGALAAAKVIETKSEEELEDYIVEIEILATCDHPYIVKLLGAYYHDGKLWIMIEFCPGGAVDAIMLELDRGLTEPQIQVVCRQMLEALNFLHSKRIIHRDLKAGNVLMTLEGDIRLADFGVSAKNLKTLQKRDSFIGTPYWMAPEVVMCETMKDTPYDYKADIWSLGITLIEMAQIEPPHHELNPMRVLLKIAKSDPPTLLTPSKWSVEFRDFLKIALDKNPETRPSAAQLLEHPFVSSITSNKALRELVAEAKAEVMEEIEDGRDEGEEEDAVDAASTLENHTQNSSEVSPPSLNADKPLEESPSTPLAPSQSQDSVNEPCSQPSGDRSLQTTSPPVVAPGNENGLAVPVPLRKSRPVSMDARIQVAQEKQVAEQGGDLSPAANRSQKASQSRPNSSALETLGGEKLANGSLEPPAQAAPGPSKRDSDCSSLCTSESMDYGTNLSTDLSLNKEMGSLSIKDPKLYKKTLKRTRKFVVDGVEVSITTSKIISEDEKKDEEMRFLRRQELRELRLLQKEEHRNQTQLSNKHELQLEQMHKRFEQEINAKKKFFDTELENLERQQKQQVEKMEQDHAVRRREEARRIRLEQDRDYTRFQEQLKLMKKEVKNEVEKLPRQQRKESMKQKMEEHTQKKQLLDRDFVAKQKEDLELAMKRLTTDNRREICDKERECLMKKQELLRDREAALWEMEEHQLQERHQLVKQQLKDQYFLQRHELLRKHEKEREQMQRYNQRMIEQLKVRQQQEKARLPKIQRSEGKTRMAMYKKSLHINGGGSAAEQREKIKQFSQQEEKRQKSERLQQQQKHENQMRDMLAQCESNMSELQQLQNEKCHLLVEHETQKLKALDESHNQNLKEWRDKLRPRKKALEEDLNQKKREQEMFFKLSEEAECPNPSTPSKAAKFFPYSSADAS

Chain of Cyclin-dependent kinase 1 (Homo sapiens) (P06493 whole entry, looked up): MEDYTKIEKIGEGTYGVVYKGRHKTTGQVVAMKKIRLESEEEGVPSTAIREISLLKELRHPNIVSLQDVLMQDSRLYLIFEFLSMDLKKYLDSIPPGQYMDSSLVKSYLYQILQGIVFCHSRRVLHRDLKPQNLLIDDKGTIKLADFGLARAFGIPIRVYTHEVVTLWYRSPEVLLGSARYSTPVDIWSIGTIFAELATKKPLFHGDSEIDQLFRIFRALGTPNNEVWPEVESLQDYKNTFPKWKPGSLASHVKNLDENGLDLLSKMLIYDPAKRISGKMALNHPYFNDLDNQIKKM
Chain of Tyrosine-protein kinase Yes (Homo sapiens) (P07947 2-543 limits assumed): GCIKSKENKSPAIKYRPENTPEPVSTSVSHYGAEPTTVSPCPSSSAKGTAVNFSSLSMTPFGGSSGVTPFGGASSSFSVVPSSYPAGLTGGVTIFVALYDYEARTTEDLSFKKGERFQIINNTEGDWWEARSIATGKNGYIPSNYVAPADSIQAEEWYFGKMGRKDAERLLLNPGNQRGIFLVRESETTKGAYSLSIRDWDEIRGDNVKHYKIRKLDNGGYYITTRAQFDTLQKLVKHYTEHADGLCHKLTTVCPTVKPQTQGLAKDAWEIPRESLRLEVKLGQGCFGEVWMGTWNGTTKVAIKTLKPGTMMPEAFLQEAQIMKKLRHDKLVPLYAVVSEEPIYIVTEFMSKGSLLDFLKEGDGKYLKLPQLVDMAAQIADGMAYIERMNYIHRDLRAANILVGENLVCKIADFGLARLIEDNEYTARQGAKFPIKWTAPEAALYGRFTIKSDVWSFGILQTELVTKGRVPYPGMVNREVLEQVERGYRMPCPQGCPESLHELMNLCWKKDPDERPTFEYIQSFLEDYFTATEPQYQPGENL
Chain of Receptor-interacting serine/threonine-protein kinase 1 (Homo sapiens) (Q13546 whole entry): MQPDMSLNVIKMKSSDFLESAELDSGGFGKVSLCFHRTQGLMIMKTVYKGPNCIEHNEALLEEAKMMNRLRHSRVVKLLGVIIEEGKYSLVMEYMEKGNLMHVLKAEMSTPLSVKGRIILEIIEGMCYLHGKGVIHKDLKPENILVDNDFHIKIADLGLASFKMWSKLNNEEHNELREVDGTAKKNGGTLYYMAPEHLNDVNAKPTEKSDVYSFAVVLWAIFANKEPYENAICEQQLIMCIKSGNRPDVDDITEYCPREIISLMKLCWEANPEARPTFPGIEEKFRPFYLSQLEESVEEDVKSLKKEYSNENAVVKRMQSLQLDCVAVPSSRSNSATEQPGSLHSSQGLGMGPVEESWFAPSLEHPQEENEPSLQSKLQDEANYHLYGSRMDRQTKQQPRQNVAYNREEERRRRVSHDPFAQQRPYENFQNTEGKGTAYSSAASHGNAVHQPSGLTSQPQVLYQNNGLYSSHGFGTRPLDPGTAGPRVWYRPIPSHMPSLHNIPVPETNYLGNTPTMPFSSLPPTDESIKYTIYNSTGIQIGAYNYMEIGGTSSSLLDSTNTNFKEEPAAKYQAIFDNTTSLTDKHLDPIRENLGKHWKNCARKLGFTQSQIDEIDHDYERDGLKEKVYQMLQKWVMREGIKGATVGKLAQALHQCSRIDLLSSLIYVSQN
Chain of Cyclin-dependent kinase 5 (Homo sapiens) (Q00535 whole entry, looked up): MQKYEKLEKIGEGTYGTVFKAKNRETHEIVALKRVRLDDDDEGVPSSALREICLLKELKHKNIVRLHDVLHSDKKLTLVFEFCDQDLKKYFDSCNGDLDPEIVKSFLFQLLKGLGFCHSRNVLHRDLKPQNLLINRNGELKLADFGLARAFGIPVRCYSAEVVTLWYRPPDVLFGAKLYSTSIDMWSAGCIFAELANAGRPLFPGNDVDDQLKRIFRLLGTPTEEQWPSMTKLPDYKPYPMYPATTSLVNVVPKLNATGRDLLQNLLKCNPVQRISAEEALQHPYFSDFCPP
Chain of Serine/threonine-protein kinase 38-like (Homo sapiens) (Q9Y2H1 2-464 limits assumed): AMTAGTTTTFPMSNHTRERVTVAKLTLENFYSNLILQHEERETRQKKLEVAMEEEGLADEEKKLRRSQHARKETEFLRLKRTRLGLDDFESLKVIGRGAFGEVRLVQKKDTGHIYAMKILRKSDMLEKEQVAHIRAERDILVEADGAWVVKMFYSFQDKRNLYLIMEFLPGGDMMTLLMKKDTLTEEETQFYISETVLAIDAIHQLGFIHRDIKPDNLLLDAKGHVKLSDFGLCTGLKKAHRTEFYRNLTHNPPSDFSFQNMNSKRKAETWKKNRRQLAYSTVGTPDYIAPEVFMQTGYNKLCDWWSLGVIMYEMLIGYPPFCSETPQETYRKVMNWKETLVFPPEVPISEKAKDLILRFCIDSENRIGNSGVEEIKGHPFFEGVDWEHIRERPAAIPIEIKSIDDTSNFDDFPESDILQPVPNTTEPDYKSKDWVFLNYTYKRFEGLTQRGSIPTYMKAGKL
Chain of Atypical kinase COQ8B, mitochondrial (Homo sapiens) (Q96D53 whole entry): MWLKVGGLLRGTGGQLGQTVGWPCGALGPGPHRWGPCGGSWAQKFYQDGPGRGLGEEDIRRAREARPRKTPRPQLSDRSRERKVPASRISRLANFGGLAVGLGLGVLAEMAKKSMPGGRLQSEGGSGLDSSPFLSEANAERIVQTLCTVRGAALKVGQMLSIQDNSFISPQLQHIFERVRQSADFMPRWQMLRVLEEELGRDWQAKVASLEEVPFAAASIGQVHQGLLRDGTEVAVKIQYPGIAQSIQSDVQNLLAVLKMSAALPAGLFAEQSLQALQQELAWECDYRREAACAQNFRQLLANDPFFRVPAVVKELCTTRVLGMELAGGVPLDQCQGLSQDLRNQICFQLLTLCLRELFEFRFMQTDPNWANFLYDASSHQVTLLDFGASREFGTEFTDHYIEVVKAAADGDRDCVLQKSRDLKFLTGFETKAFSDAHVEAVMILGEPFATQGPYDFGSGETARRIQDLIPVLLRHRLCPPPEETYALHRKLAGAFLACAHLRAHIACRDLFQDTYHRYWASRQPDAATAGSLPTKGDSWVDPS

## CCN1CCN(Cc2ccc(NC(=O)c3ccc(C)c(Oc4ccnc5[nH]ccc45)c3)cc2C(F)(F)F)CC1
[1]
  inhibition: -1.7%
[2]
  residual activity: 1.6%
[3]
  inhibition: 4.7%
[4]
  inhibition: -3.4%
[5]
  inhibition: 16.5%
[6]
  inhibition: inactive

## CCN1CCN(Cc2ccc(NC(=O)c3ccc(C)c(/C=C/c4cnc5[nH]ccc5c4OC)c3)cc2C(F)(F)F)CC1
[7]
  inhibition: -0.7%
[8]
  inhibition: 15%
[9]
  inhibition: -2.6%

## CNc1cc(Oc2cc(C(=O)Nc3cc(N4CCN(C)CC4)cc(C(F)(F)F)c3)ccc2C)ncn1
[10]
  inhibition: 19%
